Source: the Bradley open melting point set (2014)
Several values for one entry are separate records, joined by “and”; a condition that tells them apart may be missing. Identical values can stand only once.

**Q.** For `N#CCc1cccc(CC#N)c1` [1,3-phenylenediacetonitrile], which melting point is on record?
**A.** Its melting point is 34 °C.

**Q.** With `O=S1(=O)CCCO1` [1,3-propanesultone] as the molecule, how does the melting point read?
**A.** The melting point was 32 °C.

**Q.** For `O=C1CCC(C(=O)O)=NN1` [1,4,5,6-tetrahydro-6-oxopyridazine-3-carboxylic acid], which melting point is on record?
**A.** Its melting point is 197 °C.

**Q.** For `Nc1ccc(N)c2c1C(=O)c1c(N)ccc(N)c1C2=O` [1,4,5,8-Tetraamino-9,10-anthraquinone], which melting point is on record?
**A.** Its melting point is 332 °C.

**Q.** With `CN1CCCN(C)CCN(C)CCCN(C)CC1` [1,4,8,11-tetramethyl-1,4,8,11-tetraazacyclotetradecane] as the molecule, how does the melting point read?
**A.** Its melting point is 35 °C.

**Q.** With `CCCCCCCCCCCCCCCCCC(=O)OC[C@@H](O)[C@H]1OC[C@H](O)[C@H]1O` [1,4-Anhydro-6-O-stearoyl-D-glucitol] as the molecule, how does the melting point read?
**A.** The melting point was 57 °C.

**Q.** Which melting point does the source give for `Clc1ccc(Cl)cc1` [1,4-Dichlorobenzene] here?
**A.** The melting point was 53 °C.

**Q.** With `OC(CS)C(O)CS` (stereo not drawn) [1,4-Disulfanylbutane-2,3-diol] as the molecule, how does the melting point read?
**A.** The melting point was 43 °C.

**Q.** For `O=C(O)C1COc2ccccc2O1` (stereo not drawn) [1,4-benzodioxane-2-carboxylic acid], which melting point is on record?
**A.** The melting point was 124 °C.

**Q.** With `O=S(=O)(Cl)c1ccc2c(c1)OCCO2` [1,4-benzodioxane-6-sulfonyl chloride] as the molecule, how does the melting point read?
**A.** The melting point was 66 °C.

**Q.** Which melting point does the source give for `ClC(Cl)c1ccc(C(Cl)Cl)cc1` [1,4-bis(dichloromethyl)benzene] here?
**A.** Its melting point is 93 °C.

**Q.** With `O=C1CCC(=O)CC1` [1,4-cyclohexanedione] as the molecule, how does the melting point read?
**A.** Its melting point is 78 °C.

**Q.** For `CC(C)(C)c1ccc(C(C)(C)C)cc1` [1,4-di-tert-butylbenzene], which melting point is on record?
**A.** Its melting point is 77 °C.

**Q.** Which melting point does the source give for `CC(=O)OCCCCOC(C)=O` [1,4-diacetoxybutane] here?
**A.** Its melting point is 13 °C.

**Q.** With `BrCCCCBr` [1,4-dibromobutane] as the molecule, how does the melting point read?
**A.** The melting point was -17 °C.

**Q.** With `CC(Br)CCCBr` (stereo not drawn) [1,4-dibromopentane] [listing 1 of 2 here] as the molecule, how does the melting point read?
**A.** Its melting point is -34 °C.

**Q.** For `CC(Br)CCCBr` (stereo not drawn) [1,4-dibromopentane] [listing 2 of 2 here], which melting point is on record?
**A.** Its melting point is -34 °C.

**Q.** For `Clc1ccc(Cl)cc1` [1,4-dichlorobenzene], which melting point is on record?
**A.** The melting point was 53 °C and 55 °C.

**Q.** Which melting point does the source give for `ClCCCCCl` [1,4-dichlorobutane] here?
**A.** The melting point was -37 °C.

**Q.** Which melting point does the source give for `N#Cc1ccc(C#N)cc1` [1,4-dicyanobenzene] here?
**A.** The melting point was 226 °C.

**Q.** With `N#CCCCCC#N` [1,4-dicyanobutane] as the molecule, how does the melting point read?
**A.** Its melting point is 2 °C.

**Q.** For `C1COCCO1` [1,4-dioxane], which melting point is on record?
**A.** The melting point was 12 °C.

**Q.** With `N#CCc1ccc(CC#N)cc1` [1,4-phenylenediacetonitrile] as the molecule, how does the melting point read?
**A.** The melting point was 96 °C.

**Q.** Which melting point does the source give for `O=C(C=Cc1ccccc1)C=Cc1ccccc1` [1,5-Diphenylpenta-1,4-dien-3-one] here?
**A.** The melting point was 111 °C.

**Q.** With `OCCCCCO` [1,5-pentanediol] as the molecule, how does the melting point read?
**A.** The melting point was -16 °C.

**Q.** For `BrCCCCCCBr` [1,6-Dibromohexane], which melting point is on record?
**A.** The melting point was 2 °C.

**Q.** For `O=C(O)c1cc2cc(Br)ccc2c(Br)c1O` [1,6-dibromo-2-hydroxynaphthalene-3-carboxylic acid], which melting point is on record?
**A.** Its melting point is 251 °C.

**Q.** With `C1CCC2=NCCCN2CC1` [1,8-diazabicyclo[5.4.0]undec-7-ene] as the molecule, how does the melting point read?
**A.** The melting point was -70 °C.

**Q.** For `OCCCCCCCCO` [1,8-octanediol], which melting point is on record?
**A.** Its melting point is 60 °C.

**Q.** With `N#CCCCCCCCCCCC#N` [1,10-decanedicarbonitrile] as the molecule, how does the melting point read?
**A.** Its melting point is 18 °C.

**Q.** Which melting point does the source give for `OCCCCCCCCCCO` [1,10-decanediol] here?
**A.** Its melting point is 73 °C.

**Q.** With `c1cnc2c(c1)ccc1cccnc12` [1,10-phenanthroline, anhydrous] as the molecule, how does the melting point read?
**A.** The melting point was 118 °C.

**Q.** With `CC(=O)c1ccco1` [1-(2-Furyl)ethanone] as the molecule, how does the melting point read?
**A.** The melting point was 29.5 °C.

**Q.** With `COc1ccccc1N1CCNCC1` [1-(2-methoxyphenyl)piperazine] as the molecule, how does the melting point read?
**A.** Its melting point is 37 °C.

**Q.** For `O=C(CC(=O)C(F)(F)F)c1cccs1` [1-(2-thenoyl)-3,3,3-trifluoroacetone], which melting point is on record?
**A.** The melting point was 43 °C.

**Q.** For `Oc1ccc2ccccc2c1N=Nc1nccs1` [1-(2-thiazolylazo)-2-naphthol], which melting point is on record?
**A.** Its melting point is 139 °C.

**Q.** With `CCC(=O)c1ccc(Cl)cc1` [1-(4-Chlorophenyl)propan-1-one] as the molecule, how does the melting point read?
**A.** The melting point was 35.5 °C.

**Q.** With `CC(=O)c1ccc(I)cc1` [1-(4-Iodophenyl)ethanone] as the molecule, how does the melting point read?
**A.** The melting point was 84.8 °C and 85.3 °C.

**Q.** Which melting point does the source give for `O=[N+]([O-])c1ccc(N2CCCCC2)cc1` [1-(4-nitrophenyl)piperidine] here?
**A.** Its melting point is 104 °C.

**Q.** Which melting point does the source give for `O=[N+]([O-])c1ccc(/N=N/c2c(O)ccc3ccccc23)cc1` [1-(4-nitrophenylazo)-2-naphthol] here?
**A.** The melting point was 250 °C.

**Q.** Which melting point does the source give for `N#CCC(=O)N1CCCC1` [1-(cyanoacetyl)pyrrolidine] here?
**A.** The melting point was 73 °C.

**Q.** With `O=C(O)C1(C(F)(F)F)CCCCC1` [1-(trifluoromethyl)cyclohexanecarboxylic acid] as the molecule, how does the melting point read?
**A.** The melting point was 70 °C.

**Q.** With `Nc1c(Br)cc(Br)c2c1C(=O)c1ccccc1C2=O` [1-Amino-2,4-dibromo-9,10-anthraquinone] as the molecule, how does the melting point read?
**A.** The melting point was 226 °C.

**Q.** For `Cc1ccc(Br)cc1` [1-Bromo-4-methylbenzene], which melting point is on record?
**A.** The melting point was 28.5 °C.

**Q.** For `O=[N+]([O-])c1ccc(Cl)c([N+](=O)[O-])c1` [1-Chloro-2,4-dinitrobenzene], which melting point is on record?
**A.** Its melting point is 53 °C.

**Q.** Which melting point does the source give for `Cc1cccc(Cl)c1` [1-Chloro-3-methylbenzene] here?
**A.** Its melting point is -48 °C.

**Q.** Which melting point does the source give for `O=[N+]([O-])c1ccc(Cl)cc1` [1-Chloro-4-nitrobenzene] here?
**A.** Its melting point is 83.6 °C.

**Q.** Which melting point does the source give for `CCCCCl` [1-Chlorobutane] here?
**A.** Its melting point is -123 °C.

**Q.** With `CCCCCCCl` [1-Chlorohexane] as the molecule, how does the melting point read?
**A.** Its melting point is -94 °C.

**Q.** With `O=[N+]([O-])c1ccc(F)c([N+](=O)[O-])c1` [1-Fluoro-2,4-dinitrobenzene] as the molecule, how does the melting point read?
**A.** Its melting point is 27 °C.

**Q.** With `COc1cc(Cl)c(Cl)c(Cl)c1Cl` [1-Methoxy-2,3,4,5-tetrachlorobenzene] as the molecule, how does the melting point read?
**A.** The melting point was 88 °C.

**Q.** Which melting point does the source give for `COc1ccc([N+](=O)[O-])cc1` [1-Methoxy-4-nitrobenzene] here?
**A.** Its melting point is 48 °C.

**Q.** For `O=C(O)c1cccc2ccccc12` [1-Naphthoic acid], which melting point is on record?
**A.** The melting point was 162 °C.

**Q.** With `O=[N+]([O-])c1cccc2ccccc12` [1-Nitronaphthalene] as the molecule, how does the melting point read?
**A.** Its melting point is 61.5 °C.

**Q.** Which melting point does the source give for `FC(F)(F)c1cc(-n2cccc2)cc(C(F)(F)F)c1` [1-[3,5-bis(trifluoromethyl)phenyl]pyrrole] here?
**A.** Its melting point is 42 °C.

**Q.** Which melting point does the source give for `Cc1ccc(N=Nc2c(O)ccc3ccccc23)c([N+](=O)[O-])c1` [1-[(4-Methyl-2-nitrophenyl)diazenyl]-2-naphthol] here?
**A.** The melting point was 271 °C.

**Q.** For `OCCC12CC3CC(CC(C3)C1)C2` [1-adamantaneethanol], which melting point is on record?
**A.** The melting point was 74 °C.

**Q.** Which melting point does the source give for `NC12CC3CC(CC(C3)C1)C2` [1-adamantylamine] here?
**A.** Its melting point is 180 °C.

**Q.** Which melting point does the source give for `CCCCN` [1-aminobutane] here?
**A.** The melting point was -49 °C.

**Q.** For `CCCCCCCCN` [1-aminooctane], which melting point is on record?
**A.** Its melting point is 0 °C.

**Q.** For `Clc1cccc(Cl)c1Br` [1-bromo-2,6-dichlorobenzene], which melting point is on record?
**A.** Its melting point is 66 °C.

**Q.** For `Fc1cc(I)ccc1Br` [1-bromo-2-fluoro-4-iodobenzene], which melting point is on record?
**A.** The melting point was 36 °C.

**Q.** With `Clc1cc(Cl)cc(Br)c1` [1-bromo-3,5-dichlorobenzene] as the molecule, how does the melting point read?
**A.** Its melting point is 75 °C.

**Q.** Which melting point does the source give for `Brc1cccc(I)c1` [1-bromo-3-iodobenzene] here?
**A.** Its melting point is -9 °C.

**Q.** Which melting point does the source give for `Fc1ccc(Br)cc1` [1-bromo-4-fluorobenzene] here?
**A.** The melting point was -16 °C.

**Q.** Which melting point does the source give for `O=[N+]([O-])c1ccc(Br)cc1` [1-bromo-4-nitrobenzene] here?
**A.** The melting point was 126 °C.

**Q.** Which melting point does the source give for `CCCCBr` [1-bromobutane] here?
**A.** Its melting point is -112 °C.

**Q.** For `CCCCCCCBr` [1-bromoheptane], which melting point is on record?
**A.** The melting point was -56 °C.

**Q.** For `CCCCCCBr` [1-bromohexane], which melting point is on record?
**A.** The melting point was -85 °C.

**Q.** For `O=[N+]([O-])c1ccc(Cl)c([N+](=O)[O-])c1` [1-chloro-2,4-dinitrobenzene], which melting point is on record?
**A.** Its melting point is 53 °C.

**Q.** With `Fc1ccc(Cl)cc1` [1-chloro-4-fluorobenzene] as the molecule, how does the melting point read?
**A.** The melting point was -22 °C.

**Q.** With `O=[N+]([O-])c1ccc(Cl)cc1` [1-chloro-4-nitrobenzene] [listing 1 of 2 here] as the molecule, how does the melting point read?
**A.** The melting point was 84 °C.

**Q.** Which melting point does the source give for `O=[N+]([O-])c1ccc(Cl)cc1` [1-chloro-4-nitrobenzene] [listing 2 of 2 here] here?
**A.** Its melting point is 84 °C.
